Assay results as given in article PMC6783499, “Heteroglycoclusters With Dual Nanomolar Affinities for the Lectins LecA and LecB From Pseudomonas aeruginosa” (Frontiers in Chemistry, 2019).

Experiments:
LecB = molecular target: T1, LecB (Pseudomonas aeruginosa, UniProt Q9HYN5); assay: biochemical; assay type: binding; details: for n (stoichiometry, glycocluster molecules per lectin monomer) / –ΔG / –ΔH / −TΔS / Kd: 25°C; for n (stoichiometry, glycocluster molecules per lectin monomer): pH 7.5; for –ΔG / –ΔH / −TΔS: per mole of glycocluster; for Kd: 20 mM Tris, 100 mM NaCl, 0.1 mM CaCl2, pH 7.5, ligand in syringe; for binding to LecB in words: abstract
T1 construct: made in house; host or cells: Escherichia coli BL21(DE3)
T1 sequence (Q9HYN5 entry or part of it): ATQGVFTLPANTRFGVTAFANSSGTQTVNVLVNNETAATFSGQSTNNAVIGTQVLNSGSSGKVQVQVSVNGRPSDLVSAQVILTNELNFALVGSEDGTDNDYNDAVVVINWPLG
Procedure: (§1) The resulting hGCs were tested in solution with lectins by Isothermal Titration Calorimetry (Table 1) and their binding properties were compared with homoclusters 15–20 (Berthet et al., [2013]; Thomas et al., [2015b]) displaying either 4 and 16 βGal or αFuc units attached with an oxime or a triazole linker (Figure 3). […] Experiments were performed in direct injection mode (i.e., ligand in syringe and protein in cell) to minimize aggregation problems.
(§2) All chemical reagents were purchased from Aldrich (Saint Quentin Fallavier, France) or Acros (Noisy-Le-Grand, France). All protected amino acids and Fmoc-Gly-Sasrin® resin was obtained from Advanced ChemTech Europe (Brussels, Belgium). For peptides and glycopeptides, analytical RP-HPLC was performed on Waters system equipped with a Waters 2695 separations module and a Waters 2487 Dual Absorbance UV/Visible Detector. Analysis was carried out at 1.0 mL/min (EC 125/3 nucleosil 300-5 C18) with UV monitoring at 214 nm and 250 nm using a linear A–B gradient (buffer A: 0.09% CF3CO2H in water; buffer B: 0.09% CF3CO2H in 90% acetonitrile). Purifications were carried out at 22.0 mL/min (VP 250/21 nucleosil 100-7 C18) with UV monitoring at 214 nm and 250 nm using a linear A–B gradient. HRMS and ESI-MS and HRMS spectra of peptides and glycopeptides were measured on an Esquire 3000 spectrometer from Bruker. Lectins LecA and LecB were produced in recombinant form in Escherichia coli BL21(DE3) as described previously (Mitchell et al., [2005]; Blanchard et al., [2008]).
(§3) Other compounds were assayed with a VP-ITC isothermal titration calorimeter (Microcal). The experiments were carried out at 25°C. All glycocompounds and lectins LecB and LecA were dissolved in the same buffer composed of 20 mM Tris with 100 mM NaCl and 0.1 mM CaCl2 at pH 7.5. For PEAQ-ITC, the lectins were placed in the microcalorimeter cell (200 μL) at concentrations varying from 35 to 70 μM. […] For VP-ITC, the microcalorimeter cell (1.447 mL) contained the lectins with concentrations between 30 and 100 μM. A total of 30 injections of 10 μL were performed intervals of 5 min while stirring at 310 rpm with glycoclusters concentrations varying from 0.40 to 0.150 μM. The experimental data were fitted to a theoretical titration curve using the Microcal PEAQ-ITC analysis software, with ΔH (enthalpy change), Ka (association constant), and N (number of binding sites per monomer) as adjustable parameters. Dissociation constant (Kd), free energy change (ΔG), and entropy contributions (TΔS) were derived from the previous ones. Two or three independent titrations were performed for each ligand tested.

LecA = molecular target: T2, LecA (Pseudomonas aeruginosa, UniProt Q05097); assay: biochemical; assay type: binding; details: for –ΔH (binding enthalpy) / n (stoichiometry, glycocluster molecules per lectin monomer) / –ΔG / –ΔH / −TΔS / binding to LecA in words / α (relative potency compared to the monovalent compound) / β (relative potency per sugar unit): LecA; for –ΔH (binding enthalpy) / n (stoichiometry, glycocluster molecules per lectin monomer) / –ΔG / –ΔH / −TΔS: ITC; for n (stoichiometry, glycocluster molecules per lectin monomer) / –ΔG / –ΔH / −TΔS: 25°C; for n (stoichiometry, glycocluster molecules per lectin monomer): pH 7.5; for –ΔG / –ΔH / −TΔS: per mole of glycocluster; for binding to LecA in words: abstract; for α (relative potency compared to the monovalent compound) / β (relative potency per sugar unit): relative to βGal-OMe
T2 construct: made in house; host or cells: Escherichia coli BL21(DE3)
T2 sequence (Q05097 whole entry): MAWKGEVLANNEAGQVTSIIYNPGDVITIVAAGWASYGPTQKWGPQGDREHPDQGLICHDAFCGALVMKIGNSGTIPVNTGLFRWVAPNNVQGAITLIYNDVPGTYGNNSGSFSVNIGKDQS
Procedure: as §1, §2
as §3, with “A total of 30 injections of 10 μL were performed intervals of 5 min while stirring at 310 rpm with glycoclusters concentrations varying from 0.40 to 0.150 μM.” left out

C[C@@H]1NC(=O)[C@H](CCCCNC(=O)/C=N/O[C@@H]2O[C@@H](C)[C@@H](O)[C@@H](O)[C@@H]2O)NC(=O)CNC(=O)[C@@H]2CCCN2C(=O)[C@H](CCCCNC(=O)/C=N/O[C@@H]2O[C@@H](C)[C@@H](O)[C@@H](O)[C@@H]2O)NC(=O)[C@H](CCCCNC(=O)CO/N=C/C(=O)NCCCC[C@@H]2NC(=O)CNC(=O)[C@@H]3CCCN3C(=O)[C@H](CCCCNC(=O)/C=N/OCC(=O)NCCCC[C@@H]3NC(=O)[C@H](CCCCNC(=O)/C=N/O[C@@H]4O[C@@H](C)[C@@H](O)[C@@H](O)[C@@H]4O)NC(=O)CNC(=O)[C@@H]4CCCN4C(=O)[C@H](CCCCNC(=O)/C=N/O[C@@H]4O[C@@H](C)[C@@H](O)[C@@H](O)[C@@H]4O)NC(=O)[C@H](C)NC(=O)[C@H](CCCCNC(=O)/C=N/O[C@@H]4O[C@@H](C)[C@@H](O)[C@@H](O)[C@@H]4O)NC(=O)CNC(=O)[C@@H]4CCCN4C(=O)[C@H](CCCCNC(=O)/C=N/O[C@@H]4O[C@@H](C)[C@@H](O)[C@@H](O)[C@@H]4O)NC3=O)NC(=O)[C@H](CCCCN)NC(=O)[C@H](CCCCNC(=O)CO/N=C/C(=O)NCCCC[C@@H]3NC(=O)[C@H](CCCCn4cc(CO[C@@H]5O[C@H](CO)[C@H](O)[C@H](O)[C@H]5O)nn4)NC(=O)CNC(=O)[C@@H]4CCCN4C(=O)[C@H](CCCCn4cc(CO[C@@H]5O[C@H](CO)[C@H](O)[C@H](O)[C@H]5O)nn4)NC(=O)[C@H](C)NC(=O)[C@H](CCCCn4cc(CO[C@@H]5O[C@H](CO)[C@H](O)[C@H](O)[C@H]5O)nn4)NC(=O)CNC(=O)[C@@H]4CCCN4C(=O)[C@H](CCCCn4cc(CO[C@@H]5O[C@H](CO)[C@H](O)[C@H](O)[C@H]5O)nn4)NC3=O)NC(=O)CNC(=O)[C@@H]3CCCN3C(=O)[C@H](CCCCNC(=O)CO/N=C/C(=O)NCCCC[C@@H]3NC(=O)[C@H](CCCCn4cc(CO[C@@H]5O[C@H](CO)[C@H](O)[C@H](O)[C@H]5O)nn4)NC(=O)CNC(=O)[C@@H]4CCCN4C(=O)[C@H](CCCCn4cc(CO[C@@H]5O[C@H](CO)[C@H](O)[C@H](O)[C@H]5O)nn4)NC(=O)[C@H](C)NC(=O)[C@H](CCCCn4cc(CO[C@@H]5O[C@H](CO)[C@H](O)[C@H](O)[C@H]5O)nn4)NC(=O)CNC(=O)[C@@H]4CCCN4C(=O)[C@H](CCCCn4cc(CO[C@@H]5O[C@H](CO)[C@H](O)[C@H](O)[C@H]5O)nn4)NC3=O)NC(=O)[C@H](C)NC2=O)NC(=O)[C@H](CCCCNC(=O)/C=N/O[C@@H]2O[C@@H](C)[C@@H](O)[C@@H](O)[C@@H]2O)NC(=O)CNC(=O)[C@@H]2CCCN2C(=O)[C@H](CCCCNC(=O)/C=N/O[C@@H]2O[C@@H](C)[C@@H](O)[C@@H](O)[C@@H]2O)NC1=O [Compound 11]
–ΔH (binding enthalpy) (LecB; ITC): 50.7 kcal/mol
n (stoichiometry, glycocluster molecules per lectin monomer) (LecB; ITC): 0.10
–ΔG (LecB; ITC): 9.61 kcal/mol
–ΔH (LecB; ITC): 50.69 ± 1.4 kcal/mol
−TΔS (LecB; ITC): 41.09 kcal/mol
Kd (LecB; ITC): 92 ± 14 nM
binding to LecB in words (LecB): maintain their binding potency
α (relative potency compared to the monovalent compound) (LecB; relative to αFuc-OMe): 4.7
Kd (LecA): 34 ± 7 nM
–ΔH (binding enthalpy) (LecA): 51.6 to 58.1 kcal/mol
n (stoichiometry, glycocluster molecules per lectin monomer) (LecA): 0.16
–ΔG (LecA): 10.2 kcal/mol
–ΔH (LecA): 55.59 ± 0.48 kcal/mol
−TΔS (LecA): 45.39 kcal/mol
binding to LecA in words (LecA): maintain their binding potency
α (relative potency compared to the monovalent compound) (LecA): 4,412
β (relative potency per sugar unit) (LecA): 551

C[C@@H]1NC(=O)[C@H](CCCCNC(=O)/C=N/O[C@@H]2O[C@H](CO)[C@H](O)[C@H](O)[C@H]2O)NC(=O)CNC(=O)[C@@H]2CCCN2C(=O)[C@H](CCCCNC(=O)/C=N/O[C@@H]2O[C@H](CO)[C@H](O)[C@H](O)[C@H]2O)NC(=O)[C@H](CCCCNC(=O)CO/N=C/C(=O)NCCCC[C@@H]2NC(=O)CNC(=O)[C@@H]3CCCN3C(=O)[C@H](CCCCNC(=O)/C=N/OCC(=O)NCCCC[C@@H]3NC(=O)[C@H](CCCCNC(=O)/C=N/O[C@@H]4O[C@H](CO)[C@H](O)[C@H](O)[C@H]4O)NC(=O)CNC(=O)[C@@H]4CCCN4C(=O)[C@H](CCCCNC(=O)/C=N/O[C@@H]4O[C@H](CO)[C@H](O)[C@H](O)[C@H]4O)NC(=O)[C@H](C)NC(=O)[C@H](CCCCNC(=O)/C=N/O[C@@H]4O[C@H](CO)[C@H](O)[C@H](O)[C@H]4O)NC(=O)CNC(=O)[C@@H]4CCCN4C(=O)[C@H](CCCCNC(=O)/C=N/O[C@@H]4O[C@H](CO)[C@H](O)[C@H](O)[C@H]4O)NC3=O)NC(=O)[C@H](CCCCN)NC(=O)[C@H](CCCCNC(=O)CO/N=C/C(=O)NCCCC[C@@H]3NC(=O)[C@H](CCCCn4cc(CO[C@@H]5O[C@@H](C)[C@@H](O)[C@@H](O)[C@@H]5O)nn4)NC(=O)CNC(=O)[C@@H]4CCCN4C(=O)[C@H](CCCCn4cc(CO[C@@H]5O[C@@H](C)[C@@H](O)[C@@H](O)[C@@H]5O)nn4)NC(=O)[C@H](C)NC(=O)[C@H](CCCCn4cc(CO[C@@H]5O[C@@H](C)[C@@H](O)[C@@H](O)[C@@H]5O)nn4)NC(=O)CNC(=O)[C@@H]4CCCN4C(=O)[C@H](CCCCn4cc(CO[C@@H]5O[C@@H](C)[C@@H](O)[C@@H](O)[C@@H]5O)nn4)NC3=O)NC(=O)CNC(=O)[C@@H]3CCCN3C(=O)[C@H](CCCCNC(=O)CO/N=C/C(=O)NCCCC[C@@H]3NC(=O)[C@H](CCCCn4cc(CO[C@@H]5O[C@@H](C)[C@@H](O)[C@@H](O)[C@@H]5O)nn4)NC(=O)CNC(=O)[C@@H]4CCCN4C(=O)[C@H](CCCCn4cc(CO[C@@H]5O[C@@H](C)[C@@H](O)[C@@H](O)[C@@H]5O)nn4)NC(=O)[C@H](C)NC(=O)[C@H](CCCCn4cc(CO[C@@H]5O[C@@H](C)[C@@H](O)[C@@H](O)[C@@H]5O)nn4)NC(=O)CNC(=O)[C@@H]4CCCN4C(=O)[C@H](CCCCn4cc(CO[C@@H]5O[C@@H](C)[C@@H](O)[C@@H](O)[C@@H]5O)nn4)NC3=O)NC(=O)[C@H](C)NC2=O)NC(=O)[C@H](CCCCNC(=O)/C=N/O[C@@H]2O[C@H](CO)[C@H](O)[C@H](O)[C@H]2O)NC(=O)CNC(=O)[C@@H]2CCCN2C(=O)[C@H](CCCCNC(=O)/C=N/O[C@@H]2O[C@H](CO)[C@H](O)[C@H](O)[C@H]2O)NC1=O [Compound 13]
n (stoichiometry, glycocluster molecules per lectin monomer) (LecB; ITC): 0.10
–ΔG (LecB; ITC): 9.44 kcal/mol
–ΔH (LecB; ITC): 43.71 ± 1.9 kcal/mol
−TΔS (LecB; ITC): 34.25 kcal/mol
Kd (LecB; ITC): 118 ± 15 nM
binding to LecB in words (LecB): maintain their binding potency
α (relative potency compared to the monovalent compound) (LecB; relative to αFuc-OMe): 3.6
β (relative potency per sugar unit) (LecB; relative to αFuc-OMe): 0.5
Kd (LecA): 35 ± 0.1 nM
–ΔH (binding enthalpy) (LecA): 51.6 to 58.1 kcal/mol
n (stoichiometry, glycocluster molecules per lectin monomer) (LecA): 0.16
–ΔG (LecA): 10.2 kcal/mol
–ΔH (LecA): 51.6 ± 0.72 kcal/mol
−TΔS (LecA): 41.49 kcal/mol
binding to LecA in words (LecA): maintain their binding potency
α (relative potency compared to the monovalent compound) (LecA): 4,286
β (relative potency per sugar unit) (LecA): 536
